Laboratory results: US20240207380A1, “NOVEL PEPTIDE TARGETING DENDRITIC CELLS, AND COMPOSITION FOR TREATING CANCER COMPRISING SAME” (INDUSTRY FOUNDATION OF CHONNAM NATIONAL UNIVERSITY, priority 2021, published 2024)
Entries after “also recorded” stand apart in the source; their conditions may differ. Ends that are not written are not given here. * marks the point of attachment. Biotin = O=C1N[C@H]2[C@H](CS[C@H]2CCCCC(=O)*)N1

B1: EF: recombinant fusion of four copies of E7ΔNLS and FlaB, SEQ ID NO: 24 (protein)
chain: MIDGPAGQAEPDRAHYNIVTFCCKCDSTLRLCVQSTHVDIRTLEDLLMGTLGIVCPICSQKPEFIDGPAGQAEPDRAHYNIVTFCCKCDSTLRLCVQSTHVDIRTLEDLLMGTLGIVCPICSQKPVDIDGPAGQAEPDRAHYNIVTFCCKCDSTLRLCVQSTHVDIRTLEDLLMGTLGIVCPICSQKPVDIDGPAGQAEPDRAHYNIVTFCCKCDSTLRLCVQSTHVDIRTLEDLLMGTLGIVCPICSQKPKLMAVNVNTNVAAMTAQRYLNNANSAQQTSMERLSSGFKINSAKDDAAGLQISNRLNVQSRGLDVAVRNANDGISIAQTAEGAMNETTNILQRMRDLSLQSANGSNSKSERVAIQEEVTALNDELNRIAETTSFGGNKLLNGTYGTKAMQIGADNGEAVMLSLKDMRSDNVMMGGVSYQAEEGKDKNWNVAAGDNDLTIALTDSFGNEQEIEINAKAGDDIEELATYINGQTDLVKASVGEGGKLQIFAGNNKVQGEIAFSGSLAGELGLGEGKNVTVDTIDVTTVQGAQESVAIVDAALKYVDSHRAELGAFQNRFNHAISNLDNINENVNASKSRIKDTDFAKETTQLTKTQILSQASSSILAQAKQAPNSALSLLGLEHHHHHH
modifications: 4xE7deltaNLS::FlaB (EF)
B2: FlaB: flagellin B (FlaB) derived from Vibrio vulnificus, SEQ ID NO: 23 (protein)
chain: MAVNVNTNVAAMTAQRYLNNANSAQQTSMERLSSGFKINSAKDDAAGLQISNRLNVQSRGLDVAVRNANDGISIAQTAEGAMNETTNILQRMRDLSLQSANGSNSKSERVAIQEEVTALNDELNRIAETTSFGGNKLLNGTYGTKAMQIGADNGEAVMLSLKDMRSDNVMMGGVSYQAEEGKDKNWNVAAGDNDLTIALTDSFGNEQEIEINAKAGDDIEELATYINGQTDLVKASVGEGGKLQIFAGNNKVQGEIAFSGSLAGELGLGEGKNVTVDTIDVTTVQGAQESVAIVDAALKYVDSHRAELGAFQNRFNHAISNLDNINENVNASKSRIKDTDFAKETTQLTKTQILSQASSSILAQAKQAPNSALSLLG
modifications: FlaB (F)

Tests used:
CD11c^+-BMDC = experiment: Cellular uptake of DC-targeting peptides by bone marrow-derived dendritic cells (FACS); assay type: cell-based, C57BL/6 mice; details: biotinylated peptides, 2 hours in RPMI 1640, FACS gated on CD11c+, compared with negative control
Experimental: (§1) Bone marrow (BM) cells were isolated by flushing femurs and tibias of C57BL/6 mice, and red blood cells (RBCs) were depleted by ACK lysis (Gibco, A10492-01). The cells were centrifuged and strained through a 70 μm filter before being resuspended in RPMI 1640 supplemented with 10% heat-inactivated FBS, 100 units/ml penicillin, and 100 μg/ml streptomycin. The cells were resuspended in complete RPMI 1640 culture medium containing GM-CSF (10 ng/ml; R&D Systems, 415-ML-010) and IL4 (10 ng/ml; R&D Systems, 415-ML-010), inoculated into a cell culture dish, and cultured at 37° C. and 5% CO2. The culture medium was refreshed every two days. On day 7 or 8, DCs loosely bound to the bottom were collected by gentle pipetting. Splenic DCs were prepared by CD11c+ MicroBeads MACS (Miltenyi Biotec, 130-052-001) following the manufacturer's instructions.
(§2) Peptides were synthesized using […] chemistry, purified using high-pressure liquid chromatography to more than 95% purity, and biotinylated in the side chain (AnyGen Inc., South Korea). Peptides were dissolved in appropriate solvents according to the manufacturer's instructions to a concentration of 0.5 mg/ml. To test CD11c^+ cell targeting by the synthesized peptides, cLNs, splenic DCs, and BMDCs were treated with the 6 peptides for 2 hours in RPMI 1640 medium. After incubation with peptides, the cells were harvested, washed and stained with anti-mouse CD11c^+ APC-conjugated Ab (eBioscience, Clone: N418, 170114-82) and streptavidin-AF488. Cells were FACS analyzed by gating upon the CD11c^+ cell population, and the results are depicted in FIGS. 6 and 7.

[1] = tested on: cervical lymph node cells, splenic dendritic cells, and bone marrow-derived dendritic cell; experiment: Cellular uptake of DC-targeting peptides in lymph node cells, splenic DCs and BMDCs (FACS); assay type: cell-based, mice; details: biotinylated peptides, 2 hours, FACS gated on CD11c+
Experimental: as §1, §2

[2] = tested on: CD11c^+ cells from cervical lymph nodes; experiment: In vivo dendritic cell targeting after intranasal administration; design: species or system BALB/c mice; details: 6.5 hours post-inoculation, compared to scrambled-peptide negative control
Experimental: The peptide at appropriate concentrations in a total volume of 10 μl/nostril was given intranasally to BALB/c mice. A scrambled peptide previously shown to be nonspecific to DCs was used as a negative control. At 6.5 hours post-inoculation, mice were sacrificed, and their cLNs were harvested. Single-cell suspensions were prepared by gently tearing the LN capsule. After gentle washing in 1×PBS, cells were stained with anti-mouse CD11c^+ APC-conjugated Ab (eBioscience, Clone: N418, 170114-82) and streptavidin-AF488, and FACS analysis was performed.

TLR5 = target: T1, TLR5 (Homo sapiens, UniProt O60602); assay type: cell-based; details: HEK-Blue hTLR5 cells
T1 construct: host or cells: HEK-Blue hTLR5 cells (HEK293-derived reporter line, own knowledge: stably transfected with the human TLR5 gene and an NF-kB-inducible SEAP reporter)
Experimental: Also, the EC50 was calculated using triplicate OD 620 nm values for each protein concentration over a wide range of protein concentrations (0.0375 nM-19.29 nM at the AAT Bioquest website).

[3] = tested on: Bone marrow-derived dendritic cells (BMDCs); experiment: Cellular uptake of EF and DEF in BMDCs (flow cytometry); assay type: cell-based, C57BL/6 mice; details: 2 hours, anti-FlaB staining, FACS gated on CD11c+
Experimental: Cells treated with PBS alone were used as a negative control. After incubation, the cells were washed twice with cold 1×PBS containing 3% FBS and then stained with anti-mouse CD11c^+ antibody (eBioscience, Clone: N418, 25-0114-82) for 1 hour at 4° C. and fixed with 4% paraformaldehyde (T&I, BPP-9004) for 10 minutes at room temperature. The cells were permeabilized using a permeabilization kit according to the manufacturer's instructions (Invitrogen, 00-8333-56) and stained with anti-FlaB antibodies, followed by FACS analysis by gating upon the CD11c^+ population. The results are depicted in FIG. 14.

[4] = tested on: Bone marrow-derived dendritic cells (BMDCs); experiment: Antigen-presenting cell activation (CD80 and CD86 on BMDC surface); assay type: cell-based, C57BL/6 mice; details: 0.5 μg/ml, 24 hours
Source text: The cells were stained on ice with fluorophore-labeled antibodies before flow cytometry analysis.

TC-1 cells = experiment: Efficacy of E7ΔNLS as tumor antigen in TC-1 tumor-bearing mice; assay type: in vivo, C57BL/6 mice; details: peritumoral injection three times at intervals of five days; 4 μg FlaB, 10 μg E7FL, 8 μg E7ΔNLS alone or combined
Experimental: Female SPF C57BL/6 mice 7 to 8 weeks old were purchased from ORIENT (Seongnam-si, Gyeonggi-do, Korea). TC-1 cells were cultured in RPMI 1640 medium supplemented with 10% heat-inactivated FIBS, 100 units/ml penicillin, and 100 μg/ml streptomycin at 37° C. under 5% CO2. Tumors were established in mice by subcutaneous injection of 5×10^4 TC-1 cells in 100 μl of PBS into the right mid-flank of each mouse. […] Tumor growth was monitored every three days. The tumor volume was calculated with formula V=(tumor length)×(tumor width)×(tumor height)/2.

T1 sequence (O60602 21-858): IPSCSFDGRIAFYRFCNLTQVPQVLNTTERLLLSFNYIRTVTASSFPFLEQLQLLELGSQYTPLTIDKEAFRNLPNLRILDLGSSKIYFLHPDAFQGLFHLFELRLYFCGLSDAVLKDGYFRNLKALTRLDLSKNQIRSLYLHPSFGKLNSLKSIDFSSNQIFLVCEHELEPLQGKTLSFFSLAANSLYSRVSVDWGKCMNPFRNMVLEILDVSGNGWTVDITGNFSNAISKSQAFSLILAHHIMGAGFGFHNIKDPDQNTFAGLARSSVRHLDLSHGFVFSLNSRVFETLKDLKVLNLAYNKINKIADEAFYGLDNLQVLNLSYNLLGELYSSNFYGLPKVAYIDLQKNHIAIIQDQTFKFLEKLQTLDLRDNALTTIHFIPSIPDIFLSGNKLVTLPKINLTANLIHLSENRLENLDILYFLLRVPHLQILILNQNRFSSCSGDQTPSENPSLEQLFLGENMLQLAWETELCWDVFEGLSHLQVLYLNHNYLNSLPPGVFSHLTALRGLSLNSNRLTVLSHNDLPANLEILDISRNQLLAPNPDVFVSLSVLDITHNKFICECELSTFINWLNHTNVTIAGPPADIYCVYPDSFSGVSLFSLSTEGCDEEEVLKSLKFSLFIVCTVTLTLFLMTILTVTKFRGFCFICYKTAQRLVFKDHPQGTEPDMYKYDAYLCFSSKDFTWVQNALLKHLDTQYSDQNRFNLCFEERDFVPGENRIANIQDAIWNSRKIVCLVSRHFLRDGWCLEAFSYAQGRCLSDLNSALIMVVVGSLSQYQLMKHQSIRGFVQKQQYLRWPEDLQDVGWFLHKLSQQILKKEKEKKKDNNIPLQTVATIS

| Molecule | targeting ability / cellular uptake of the peptides by bone marrow-derived dendritic cells (FIG. 6) (CD11c^+-BMDC) | cellular uptake in cervical lymph node cells, splenic dendritic cells and BMDCs (FIG. 7) [1] | also measured |
| --- | --- | --- | --- |
| DCpep6: RFFCLGPLGFTKVD, SEQ ID NO: 6; dendritic cell-targeting peptide discovered by in vivo biopanning (peptide 6, and DCpep6) | efficiently targeted; also recorded: remarkably higher efficiency | remarkably higher specific signals | cellular uptake in cervical lymph node cells, splenic dendritic cells and BMDCs (FIG. 7) ([1]; listed as DCpep 6): increased cellular uptake; localization of peptide in cervical lymph node cells (FIG. 8) [2]: clearly localized in the cytoplasm of CD11c^+ cells |
| DCpep 3: SPACLDLGLVPWKI, SEQ ID NO: 9; dendritic cell-targeting peptide, Arg replaced by Lys for biotinylation (SPACLDLGLVPWK(Biotin)I) | efficiently targeted | increased cellular uptake | – |
| DCpep 4: VDLYPCYTFHSKVV, SEQ ID NO: 10; dendritic cell-targeting peptide, Arg replaced by Lys for biotinylation (VDLYPCYTFHSK(Biotin)VV; not fully specified) | efficiently targeted | increased cellular uptake | – |
| B1 | – | – | NF-κB activity levels (FIG. 13) (TLR5): increased the activity in dose-dependent manners; cellular uptake in bone marrow-derived dendritic cells (FIG. 14) [3]: scarcely detected; expression of CD80 and CD86 on BMDC surface (FIG. 20) [4]: no statistical significance |
| B2 | – | – | tumor suppression (tumor volume, FIGS. 11 and 12) (TC-1 cells): did not manifest any suppressive effect |
